We go through one molecule from paper PMC12838644, “Dihydrotanshinone as a Natural Product-Based CYP17A1 Lyase Inhibitor for Hyperandrogenic Disorders” (Biomolecules, 2026).

The test system of the assay is NCI-H295R, HEK-293T and RWPE-1 cells. Kind of assay: alamarBlue cytotoxicity assay, across all three cell lines. The class given is cell-based. The following applies: Homo sapiens, read-out: half-maximal inhibitory concentrations (IC50), range across all three cell lines. As for the experimental part:
Human adrenocortical NCI-H295R cells (ATCC: CRL-2128) were purchased from ATCC and cultured in DMEM/Ham’s F-12 medium with L-glutamine and 15 mM HEPES (Thermo Fisher Scientific, Waltham, MA, USA), supplemented with 5% NU-Serum (Becton Dickinson, Franklin Lakes, NJ, USA), 0.1% insulin, transferrin, selenium (100 U/mL; Thermo Fisher Scientific, Waltham, MA, USA), and 1% penicillin (100 U/mL; Thermo Fisher Scientific, Waltham, MA, USA), and streptomycin (100 μg/mL; GIBCO, New York, NY, USA). RWPE-1 cells (ATCC: CRL-36O7) were cultured in keratinocyte serum-free media (K-SFM) supplemented with 0.05 mg/mL bovine pituitary extract and 5 ng/mL epidermal growth factor, and 1% penicillin (100 U/mL; Thermo Fisher Scientific, Waltham, MA, USA), and streptomycin (100 μg/mL; GIBCO). […] Additionally, key functional and morphological characteristics were assessed to verify their alignment with previously reported profiles.
The alamarBlue® assay (Thermo Fisher Scientific, Waltham, MA USA) was conducted as previously described. […] Cell viability was measured using the alamarBlue® assay. […] The plates were incubated in the dark at 37 °C with 5% CO2 for 4 h, and fluorescence was measured at an excitation wavelength of 540 nm and an emission wavelength of 590 nm. Cell viability was calculated relative to the control sample treated with DMSO. […]
(The colour change of resazurin is a common sign of viable cells or microbes.)

For the molecule `Cc1cccc2c3c(ccc12)C1=C(C(=O)C3=O)[C@@H](C)CO1` [DT, dihydrotanshinone I], the IC50 lay in the range of 950 to 1400 nM.
